Reference: patent US5371186A, “Synthetic peptides for detoxification of bacterial endotoxins and for the prevention and treatment of septic shock” (priority 1992, dated 1994)

How the values were obtained:
[1] = Rabbit pyrogen test of peptide/LPS complexes; assay type: in vivo; settings: rabbits, complex with LPS injected, three hours observation
Description: As a consequence of this high-affinity binding to the Lipid A moiety of endotoxins, most of the synthetic peptide analogs have shown the ability to detoxify endotoxins as evidenced by in vitro as well as in vivo analysis. The in vitro test used, as measure of detoxification, the inhibition of the enzymatic cascade leading to the coagulation of the Lymulus lysate (LAL test) by endotoxin. The LAL test is recognized as the most sensitive and predictive test for the toxic and pyrogenic activity of LPS, since pyrogenicity in vivo is related to the release of the endogenous immune modulators Interleukin-1 (IL-l) and alfa-Tumor necrosis factor (α-TNF), the mediators responsible for the fatalities associated to septic shock. As an in vivo test confirming detoxification of LPS, was then used the Rabbit pyrogen test performed according to the United States Pharmacopeia XXI.
In order to verify "in vivo" the detoxifying activity of the peptides, we have injected five groups of three rabbits each with the complexes formed by two representative synthetic peptide analogs with LPS. The pyrogenicity test has been executed according to the United States Pharmacopeia (Vol. XXI)/The National formulary (Vol. XVI), Combined Edition, Jan. 1, 1985. As a negative control in the test, the complex formed by Polymyxin "B" and LPS was injected. As a positive control free LPS was injected. […]

[2] = system: Vibrio cholerae; assay: antibiotic activity, zone of inhibition on BHI plates; assay type: cell-based, V. choleras; settings: 18 hours
Description: The following experiments compared the antibiotic activity of Polymyxin "B" with various peptides of the invention.
The tests were performed on BHI plates with liquid cultures of the test organism to give a lawn. Each peptide was diluted in water and placed on sterile Wathmam 3M disks on the surface of the plate. The plates were dried and incubated at 37° C. The zone of inhibition was measured after 18 hours: […]

[3] = prevention of endotoxin-induced death in CD1 mice sensitized with Actinomycin D; assay type: in vivo, mice (Strain CD1); settings: 0.1 mg/mouse i.v., 1 μg endotoxin i.p.; for Mice surviving: 20 mice per group
Description: Prevention of endotoxin-induced death in mice, has been achieved by intravenous injection of the peptides of the invention. For this experiment, a strain of mice highly sensitive to the lethal activity of bacterial endotoxin has been used. Mice sensitized with Actinomycin D (Strain CD1) show a high sensitivity to extremely low doses of endotoxin. A dose as low as 1 μg of endotoxin per mouse (about 40 μg/kg of body weight) is able to completely kill a population of mice within 24-48 hours.
Groups of 20 mice CD1 have been treated intravenously with the peptides of the invention, with a single dose of 0.1 mg peptide, solubilized in sterile saline, per mouse. Thirty minutes later, mice were challenged by intraperitoneal injection of 1 μg of endotoxin purified from E. Coli strain 055-B5. Surviving mice were recorded every 24 hours during a seven days-period of observation. […] Negative controls received an intravenous injection of saline.
There were 20 mice per group. Mice surviving at each of the seven 24 hours observation periods are listed. The % survival appears in parenthesis. P expresses the level of statistical significance calculated by "t-Test" for each molecule compared to the treatment with saline, considering the total survival rate in each group.

[4] = same species of mice (Swiss Webster); cited from earlier work

For Polymyxin "B", the “pyrogenicity (temperature increase) of complex with LPS” value [1] was “did not show either of the two waves of temperature increase”, the “Zone (mm) of inhibition V. choleras” value ([2]; 0.008 μg/ml) was 1 mm and the “Zone (mm) of inhibition V. choleras” value ([2]; 0.04 μg/ml) was 2 mm. For the same substance, the “Zone (mm) of inhibition V. choleras” value ([2]; 0.2 μg/ml) was 2.5 mm, the “Zone (mm) of inhibition V. choleras” value ([2]; 1.0 μg/ml) was 5 mm and the “% survival” value ([3]; 24 hs) was 50%. For the same substance, the Mice surviving ([3]; 24 hs) was 10, the “% survival” value ([3]; 48 hs) was 40% and the Mice surviving ([3]; 48 hs) was 8. The “% survival” value ([3]; 72 hs) was 30%, the Mice surviving ([3]; 72 hs) was 6 and the “% survival” value ([3]; 96 hs) was 30%. The Mice surviving ([3]; 96 hs) was 6, the “% survival” value ([3]; 120 hs) was 30% and the Mice surviving ([3]; 120 hs) was 6. The “% survival” value ([3]; 144 hs) was 30%, the Mice surviving ([3]; 144 hs) was 6 and the “% survival” value ([3]; 168 hs) was 30%. The Mice surviving ([3]; 168 hs) was 6 and the LD50 [4] was 2.5 to 5 mg/kg.
